Laboratory results published in patent US20100292200A1, “Methods for Modulating Apoptosis in Platelets” (The Walter and Eliza Hall Institute of Medical Research, priority 2006, published 2010).

Tests used:
[1] = system: primary MEFs from wild type, Bcl-x^Plt20/Plt20 or Bcl-x^Plt16/Plt16 mice; test: Viability of primary MEFs (PI exclusion) after cell death induction; type: cell-based, mouse
Source text: FIG. 3 provides a representation of data showing that the Bcl-x^Plt20 and Bcl-x^Plt16 mutations destabilize the Bcl-xL protein (A) Location of the Plt20 and Plt16 mutations on Bcl-xL. The two mutations (in blue) are mapped on the 3-dimensional structure of mouse Bcl-xL (light gray) in complex with a Bim BH3 peptide (red) (1PQ1) (Liu et al. Immunity, 19:341-352, 2003). Y15 (Plt20) is partially solvent exposed, while I182 (Plt16) is completely buried, neither contributing to the BH3 binding groove of Bcl-xL. The structural depiction was prepared using PyMOL (DeLano, W. L. 2002 The PyMOL Molecular Graphics System; http://www.pymol.org). (B) The mutant proteins encoded by the Plt20 and Plt16 alleles of Bcl-x can still bind Bax and Bak. […] Data shown is representative of at least 2 cell lines of each genotype analyzed. […] The viability (determined by PI exclusion) of representative primary MEFs derived from wild type, Bcl-x^Plt20/Plt20 or Bcl-x^Plt16/Plt16 mice after exposure to 50 μg/mL cycloheximide for 0-30 h. […]
FIG. 8 is a graphical representation of data showing the sensitivity of cell lines derived from Bcl-x mutant mice to apoptosis. […] Viability was determined by PI uptake; data represent means±SD of representative cell lines. \-<1% viability. […]

Mcl-1 null MEF cells = test: Assay of Mcl-1 null MEF cells (rescue from ABT-737-induced killing, CellTitre-Blue viability); type: cell-based, mouse; conditions: positive control, 25 μM final; ABT-737 20 nM final
Protocol: In summary, cells are split on day one in order to have them at a confluency of 60-80% on day two. On day two, the cells are seeded out into assay plates at a density that will ensure they are not confluent by day four of the assay. The assay plates are incubated at room temperature for 20-60 minutes before being transferred to 37° C. so that edge effects are minimized. For the same reason, assay plates are never stacked on top of each other in the incubator. On day three the cells are treated first with either Q-VD or with WEHI library compound. The cells are incubated for a 2 hour period in the presence of the library compounds and are then treated with ABT-737. […] After four hours the level of resorufin is measured.
The protocol for day one was repeated up to the point where the cells were pelleted and the supernatant aspirated off. […] The cells were vortexed and then counted using a haemocytometer. The dilution necessary to achieve a density of 2×10^4 cells ml^−1 (1000 cells per well per 50 μl media) in the required volume was calculated and the dilution performed in 1% FCS FMA. […]
CellTitre-Blue™ was warmed to 37° C. and 10 μl was then added to each well of the assay plates using the Multidrop. The plates were returned to 37° C. for 4 hours before being loaded into the EnVision plate reader. […]

mouse platelets = test: Ex vivo platelet assays, mouse platelets in culture (platelet counts, caspase immunoblotting); type: cell-based; conditions: qVD.OPh 50 μM with ABT-737 1 μM
Protocol: (A) Expression of Bcl-2 family proteins in platelets. […] (C) ABT-737 triggers caspase activation in platelets. […] (F) Absence of Bak protects platelets against ABT-737.
Cell death was induced with ABT-737 (up to 5 μM, Abbott Laboratories (Oltersdorf et al., 2005 (supra)), etoposide (up to 100 μM, Pharmacia) or staurosporine (10 μM, Sigma); 50 μM qVD.OPh (Enzyme Systems) was also added in some experiments. Cell viability was determined by flow cytometry for cells that exclude propidium iodide or manual counting using a hemacytometer.
Other antibodies for immunoblotting were mouse monoclonal anti-Bcl-xL (2H12; BD), anti-Bcl-2 (clone 7; BD), anti-human Bcl-2 (Bcl-2-100), anti-actin (AC40; Sigma), anti-Bax (2D2 and 5B7; Sigma), anti-Mcl-1 (clone 22: BD); rat monoclonal anti-Mcl-1 (14C11; D Huang, unpublished), rabbit polyclonal anti-Bak (B5897: Sigma), anti-Mcl-1 (Rockland), anti-caspase-3 (585; gift of Y. Lazebnik), anti-cleaved p17 fragment of caspase-3 (AB3623; Chemicon), anti-gelsolin (gift of D Kwiatkowski) (Kothakota et al., Science, 278:294-298, 1997); hamster monoclonal anti-mouse Bcl-2 (3F11; BD). Secondary antibodies included HRP-conjugated anti-rat or anti-hamster IgG (SouthernBiotech), anti-mouse or anti-rabbit IgG (Chemicon), and anti-mouse IgG Fcγ chain specific antibody (Jackson ImmunoResearch). The proteins were detected using Enhanced ChemiLuminescence (ECL; GE Healthcare).
Platelets were counted manually in triplicate using a hemacytometer.

With C[C@@H]1C[C@@H]([C@H](O)CC2CC(=O)NC(=O)C2)C(=O)[C@@H](C)C1 [cycloheximide] the “viability of Bcl-x^Plt20 or Bcl-x^Plt16 MEFs after protein synthesis inhibition” value ([1]; 50 μg/mL cycloheximide for 0-30 h, PI exclusion) was “susceptible”.
In the case of CC(C)[C@H](NC(=O)c1ccc2ccccc2n1)C(=O)N[C@@H](CC(=O)O)C(=O)COc1c(F)cccc1F [qVD.OPh], the “rescue of Mcl-1^(-/-) cells from ABT-737-induced apoptosis” value (Mcl-1 null MEF cells) is reported as “can be rescued”, the “effect of qVD.OPh on ABT-737-induced caspase-3 activation and gelsolin cleavage” value (mouse platelets) is reported as “partially blocked” and the “effect of qVD.OPh on the cytotoxic effect of ABT-737 on mouse platelets in culture” value (mouse platelets; counted after 1 h) is reported as “partially ameliorated”.
CN[C@@H]1C[C@H]2O[C@@](C)([C@@H]1OC)n1c3ccccc3c3c4c(c5c6ccccc6n2c5c31)C(=O)NC4 [staurosporine] was tested, and the “sensitivity of wild-type, Bcl-x^Plt20/Plt20 or Bcl-x^Plt16/Plt16 MEFs to staurosporine” value ([1]; staurosporine 10 μM, PI uptake) was “equally sensitive”.
